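Interpolation was linear, between the two tested concentrations surrounding the appropriate level; five concentrations were tested over 48 hours in 96-well plates. At the GI50, growth is halved. TGI: concentration producing complete growth inhibition.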
How the values were obtained:
Test in all cases: growth of human tumour cells (NCI), 48 h
SK-OV-3 ovarian = tested on: SK-OV-3 ovarian
UO-31 renal = tested on: UO-31 renal
TK-10 renal = tested on: TK-10 renal
A498 renal = tested on: A498 renal
HOP-62 NSCLC = tested on: HOP-62 NSCLC
HL-60(TB) leukemia = tested on: HL-60(TB) leukemia
MDA-MB-231 breast = tested on: MDA-MB-231 breast
HCT-15 colon = tested on: HCT-15 colon
COLO 205 colon = tested on: COLO 205 colon
HT29 colon = tested on: HT29 colon
NCI/ADR-RES ovarian = tested on: NCI/ADR-RES ovarian
U251 CNS = tested on: U251 CNS
SK-MEL-28 melanoma = tested on: SK-MEL-28 melanoma
ACHN renal = tested on: ACHN renal
HOP-92 NSCLC = tested on: HOP-92 NSCLC
SN12C renal = tested on: SN12C renal
A549 NSCLC = tested on: A549 NSCLC
MDA-MB-435 = tested on: MDA-MB-435
M14 melanoma = tested on: M14 melanoma
UACC-257 melanoma = tested on: UACC-257 melanoma
SF-539 CNS = tested on: SF-539 CNS
UACC-62 melanoma = tested on: UACC-62 melanoma
T-47D breast = tested on: T-47D breast
OVCAR-4 ovarian = tested on: OVCAR-4 ovarian
KM12 colon = tested on: KM12 colon
786-0 renal = tested on: 786-0 renal
SF-295 CNS = tested on: SF-295 CNS
SF-268 CNS = tested on: SF-268 CNS
SK-MEL-5 melanoma = tested on: SK-MEL-5 melanoma
BT-549 breast = tested on: BT-549 breast
OVCAR-3 ovarian = tested on: OVCAR-3 ovarian
RXF 393 renal = tested on: RXF 393 renal
LOX IMVI melanoma = tested on: LOX IMVI melanoma
HS 578T breast = tested on: HS 578T breast
SNB-19 CNS = tested on: SNB-19 CNS
PC-3 prostate = tested on: PC-3 prostate
MOLT-4 leukemia = tested on: MOLT-4 leukemia
CCRF-CEM leukemia = tested on: CCRF-CEM leukemia
SNB-75 CNS = tested on: SNB-75 CNS
HCC-2998 colon = tested on: HCC-2998 colon
SK-MEL-2 melanoma = tested on: SK-MEL-2 melanoma
SW-620 colon = tested on: SW-620 colon
K-562 leukemia = tested on: K-562 leukemia
NCI-H522 lung = tested on: NCI-H522 lung
NCI-H460 lung = tested on: NCI-H460 lung
DU-145 prostate = tested on: DU-145 prostate
RPMI-8226 leukemia = tested on: RPMI-8226 leukemia
NCI-H226 lung = tested on: NCI-H226 lung
IGROV1 ovarian = tested on: IGROV1 ovarian
OVCAR-8 ovarian = tested on: OVCAR-8 ovarian
MALME-3M melanoma = tested on: MALME-3M melanoma
SR leukemia = tested on: SR leukemia
EKVX NSCLC = tested on: EKVX NSCLC
NCI-H23 lung = tested on: NCI-H23 lung
OVCAR-5 ovarian = tested on: OVCAR-5 ovarian

`N#CCC1(n2cc(-c3ncnc4[nH]ccc34)cn2)CN(C2CCN(C(=O)c3ccnc(C(F)(F)F)c3F)CC2)C1` showed a GI50 (SK-OV-3 ovarian) greater than 100 µM, a TGI (SK-OV-3 ovarian) greater than 100 µM and a GI50 (UO-31 renal) of 49.2 µM. The TGI (UO-31 renal) was greater than 100 µM, the GI50 (TK-10 renal) was 55.3 µM and the TGI (TK-10 renal) was greater than 100 µM. The GI50 (A498 renal) was 29.1 µM, the TGI (A498 renal) was greater than 100 µM and the GI50 (HOP-62 NSCLC) was greater than 100 µM. The TGI (HOP-62 NSCLC) was greater than 100 µM, the GI50 (HL-60(TB) leukemia) was greater than 100 µM and the TGI (HL-60(TB) leukemia) was greater than 100 µM. It also gave a GI50 (MDA-MB-231 breast) of 46.6 µM, a TGI (MDA-MB-231 breast) greater than 100 µM and a GI50 (HCT-15 colon) greater than 100 µM. The TGI (HCT-15 colon) was greater than 100 µM, the GI50 (COLO 205 colon) was 57.8 µM and the TGI (COLO 205 colon) was greater than 100 µM. It also gave a GI50 (HT29 colon) greater than 100 µM, a TGI (HT29 colon) greater than 100 µM and a GI50 (NCI/ADR-RES ovarian) greater than 100 µM. For the same compound, the TGI (NCI/ADR-RES ovarian) was greater than 100 µM, the GI50 (U251 CNS) was greater than 100 µM and the TGI (U251 CNS) was greater than 100 µM. The GI50 (SK-MEL-28 melanoma) was greater than 100 µM, the TGI (SK-MEL-28 melanoma) was greater than 100 µM and the GI50 (ACHN renal) was greater than 100 µM. For the same compound, the TGI (ACHN renal) was greater than 100 µM, the GI50 (HOP-92 NSCLC) was 20.7 µM and the TGI (HOP-92 NSCLC) was greater than 100 µM. The GI50 (SN12C renal) was 69.8 µM, the TGI (SN12C renal) was greater than 100 µM and the GI50 (A549 NSCLC) was greater than 100 µM. The TGI (A549 NSCLC) was greater than 100 µM, the GI50 (MDA-MB-435) was 92.1 µM and the TGI (MDA-MB-435) was greater than 100 µM. For the same compound, the GI50 (M14 melanoma) was greater than 100 µM, the TGI (M14 melanoma) was greater than 100 µM and the GI50 (UACC-257 melanoma) was greater than 100 µM. It also gave a TGI (UACC-257 melanoma) greater than 100 µM, a GI50 (SF-539 CNS) of 37.9 µM and a TGI (SF-539 CNS) greater than 100 µM. The GI50 (UACC-62 melanoma) was 76.4 µM, the TGI (UACC-62 melanoma) was greater than 100 µM and the GI50 (T-47D breast) was 51.7 µM. It also gave a TGI (T-47D breast) greater than 100 µM, a GI50 (OVCAR-4 ovarian) greater than 100 µM and a TGI (OVCAR-4 ovarian) greater than 100 µM. It also gave a GI50 (KM12 colon) of 36.1 µM, a TGI (KM12 colon) greater than 100 µM and a GI50 (786-0 renal) greater than 100 µM. It also gave a TGI (786-0 renal) greater than 100 µM, a GI50 (SF-295 CNS) of 53.9 µM and a TGI (SF-295 CNS) greater than 100 µM. For the same compound, the GI50 (SF-268 CNS) was greater than 100 µM, the TGI (SF-268 CNS) was greater than 100 µM and the GI50 (SK-MEL-5 melanoma) was 65.3 µM. For the same compound, the TGI (SK-MEL-5 melanoma) was greater than 100 µM, the GI50 (BT-549 breast) was 37.5 µM and the TGI (BT-549 breast) was greater than 100 µM. It also gave a GI50 (OVCAR-3 ovarian) greater than 100 µM, a TGI (OVCAR-3 ovarian) greater than 100 µM and a GI50 (RXF 393 renal) of 28.2 µM. For the same compound, the TGI (RXF 393 renal) was greater than 100 µM, the GI50 (LOX IMVI melanoma) was 96.8 µM and the TGI (LOX IMVI melanoma) was greater than 100 µM. For the same compound, the GI50 (HS 578T breast) was 28.1 µM, the TGI (HS 578T breast) was greater than 100 µM and the GI50 (SNB-19 CNS) was greater than 100 µM. It also gave a TGI (SNB-19 CNS) greater than 100 µM, a GI50 (PC-3 prostate) greater than 100 µM and a TGI (PC-3 prostate) greater than 100 µM. The GI50 (MOLT-4 leukemia) was 49.9 µM, the TGI (MOLT-4 leukemia) was greater than 100 µM and the GI50 (CCRF-CEM leukemia) was 54.5 µM. For the same compound, the TGI (CCRF-CEM leukemia) was greater than 100 µM, the GI50 (SNB-75 CNS) was 25.7 µM and the TGI (SNB-75 CNS) was greater than 100 µM. For the same compound, the GI50 (HCC-2998 colon) was greater than 100 µM, the TGI (HCC-2998 colon) was greater than 100 µM and the GI50 (SK-MEL-2 melanoma) was greater than 100 µM. It also gave a TGI (SK-MEL-2 melanoma) greater than 100 µM, a GI50 (SW-620 colon) of 83.5 µM and a TGI (SW-620 colon) greater than 100 µM. For the same compound, the GI50 (K-562 leukemia) was 99.2 µM, the TGI (K-562 leukemia) was greater than 100 µM and the GI50 (NCI-H522 lung) was greater than 100 µM. For the same compound, the TGI (NCI-H522 lung) was greater than 100 µM, the GI50 (NCI-H460 lung) was greater than 100 µM and the TGI (NCI-H460 lung) was greater than 100 µM. It also gave a GI50 (DU-145 prostate) greater than 100 µM, a TGI (DU-145 prostate) greater than 100 µM and a GI50 (RPMI-8226 leukemia) of 98.2 µM. It also gave a TGI (RPMI-8226 leukemia) greater than 100 µM, a GI50 (NCI-H226 lung) of 19.3 µM and a TGI (NCI-H226 lung) greater than 100 µM. The GI50 (IGROV1 ovarian) was greater than 100 µM, the TGI (IGROV1 ovarian) was greater than 100 µM and the GI50 (OVCAR-8 ovarian) was greater than 100 µM. It also gave a TGI (OVCAR-8 ovarian) greater than 100 µM, a GI50 (MALME-3M melanoma) greater than 100 µM and a TGI (MALME-3M melanoma) greater than 100 µM. It also gave a GI50 (SR leukemia) of 51.4 µM, a TGI (SR leukemia) greater than 100 µM and a GI50 (EKVX NSCLC) greater than 100 µM. The TGI (EKVX NSCLC) was greater than 100 µM, the GI50 (NCI-H23 lung) was greater than 100 µM and the TGI (NCI-H23 lung) was greater than 100 µM. For the same compound, the GI50 (OVCAR-5 ovarian) was greater than 100 µM and the TGI (OVCAR-5 ovarian) was greater than 100 µM.

From PubChem BioAssay (NCI)
